From patent US20070072251A1, “In vivo imaging using peptide derivatives” (CTT Cancer Targeting Technologies OY, priority 2003, published 2007)
Where a SMILES comes first, the peptide text is derived from it. Bridges are numbered along the chain shown (N, C = ends). Where no end group is shown, it is not given here. The star is where a group is joined. DTPA = O=C(O)CN(CCN(CC(=O)O)CC(=O)O)CCN(CC(=O)O)CC(=O)*

Experiments:
[1] = Tumor targeting of radiolabelled LLG derivatives in mouse model of human myelomonocytic leukemia (gamma imaging, tissue counting); format: in vivo; details: mouse, in vivo, total radioactivity; at 24 hrs, intravenous injection, U937 model; read-out: absolute tumor-to-blood ratio
Excerpt: (§1) I-125 label, mouse model of human myelomonocytic leukemia. Planar gamma image. In these figures animals have been injected with radiolabelled peptide and anesthesized animals have been imaged under gamma camera (pinhole collimator, Picker SX-300 gamma camera).
(§2) The radiolabelled peptide derivatives were imaged at different time points using gamma camera in order to study tumor uptake in vivo as a function of time. After last imaging, tumor tissue were extirpated and counted for radioactivity. Detailed microdistribution was studied using quantitative autoradiography.
(§3) The peptide was labelled using In-111 label and direct iodination, as well as cDTPA.
(§4) The peptide was labelled using In-111 label and direct iodination and cDTPA. […] In this model absolute tumor-to-blood ratio was 4.7 at 24 hrs.

[2] = test system: human myelomonocytic leukemia U937 cell line; assay: as above; format: in vivo
Excerpt: as §1, §2, §3, §4

integrin I-domain = assay: BIACORE affinity of LLG to integrin; format: binding; details: 134 nM-134 μM; not detectable due to the small size of the peptide
Description: We examined the affinity of LLG to integrin using BIACORE. In this method, purified integrin I-domain was immobilized on the gold coated carboxymethylated dextran chip. The immobilization succeeded, and in various channels a RU between 2000-4000 was obtained. Various concentrations (3.3 nM-33 μM) of LLG-GST or GST were tested for their ability to bind to the I-domain. Reaction buffer was 10 mM HEPES (pH 7.4)-150 mM NaCl, with or without 1 mM MgCl2. […] Addition of detergent P20 0.05% could not diminish the background.
In another set of experiment, plain LLG peptide was used for affinity testing. The concentration of the tested peptide varied between 134 nM-134 μM. […] The BIACORE method is currently under development, and we intend to study the affinity again with a peptide coupled to a higher molecular weight, inert carrier molecule.

[3] = Biodistribution of I-125 labelled LLG in mice; format: in vivo; details: 30 min and 180 min after tail vein injection
Description: LLG (YADGACPCFLLGCC) was labelled with I-125, and the purified peptide (40 μg; ˜500 kBq) was injected into the tail vein of mice in the volume of […]. At 30 min and 180 min after peptide injection, the mice were sacrificed and their blood and tissues were collected to measure the radioactivity. Results are expressed as percentage of injected dose per 1.0 g tissue (% D/g) (FIG. 11). All values are indicated as the mean±SD of 3 mice.

E. coli abscess = assay: LLG targeting to E. coli abscess in rabbits (gamma camera imaging, gamma-counter biodistribution); format: in vivo, New Zealand White rabbits
Description: (§5) In this experiment, the targeting of LLG to sites of inflammation was examined in Wistar rats and New Zealand White rabbits, by inducing an abscess with approximately 1×10^9 colony-forming units of Staphylococcus aureus or Escherichia coli injected into the left tight muscle. During the procedure, the animals were anesthetized. After 24 hours, when swelling of the muscle was apparent, the In-111 radiolabeled peptide CPCFLLGCC was injected i.v. and accumulation of the peptide was followed with gamma camera imaging. The peptide was tested using 3 animals in both animal species.
The animals were followed-up for 4 hours. In late images urinary excretion disturbed the imaging, but signal-to-background ratio remained high. No other targets than abscess could be detected. Imaging would have been even more successful, if the rabbits would have been catheterized (or bladder emptied) before imaging session.
(§6) After the imaging period, animals were sacrificed, various tissues were collected and the accumulated radioactivity was measured using a gamma-counter. In FIG. 7A, the amount of accumulated peptide (expressed as percentage of injected dose/weight of the tissue measured; % ID/g) is shown for certain tissues of rabbits (mean of 3 animals). […] In these animals, the corresponding ratios were 4.5 and 2.0 for muscle and blood, respectively.

S. aureus abscess = assay: LLG targeting to S. aureus abscess in rats (gamma camera imaging, gamma-counter biodistribution); format: in vivo, Wistar rats
Description: as §5
In rats assay, animals were followed-up for 2 hours after peptide injection. […] However, signal-to-background ratio remained high, and as in rabbits, no other targets than abscess could be detected.
as §6

[4] = test system: accumulation of cells in peritoneal cavity; assay: Inhibition of leukocyte migration into thioglycolate inflamed peritoneal cavity; format: in vivo, Balb/c mice; details: 1 mg/kg iv
Description: To induce inflammation, female Balb/c mice were injected intraperitoneally with 1 ml of 3% Thioglycolate Broth (TG), three animals/group. Mice in the control group were injected iv with plain vehicle PBS-10% DMSO, and mice in the peptide group were injected iv with 1 mg/kg YADGACPCFLLGCC in PBS-10% DMSO. After 60 or 120 minutes, the mice were sacrificed. Cells in peritoneal cavity were collected by lavage with 5 ml PBS-5 mM EDTA, and counted with a hemocytometer.
In this experiment different cell populations were not distinguished. However, once again, YADGACPCFLLGCC reduced the accumulation of cells in experimental inflammation in vivo by 78% after 60 minutes and 52% after 120 minutes (FIG. 9).

THP-1 cell line = assay: Blocking of LLG-GFP binding to THP-1 cell line; format: cell-based
Description: What has been observed is that at 50 μM YLLG concentration 95% of LLG-GFPs binding is been blocked. When concentrations are been lowered to 20 μM still 70% inhibition occurs. […] However, due to the unspecific binding of peptide to the plastic walls of the container and the relative high concentrations of LLG-GFP needed for signal nanomolar scale, experiments can not been performed with this setup on its current already un-optimized state.

[5] = % ID/g, mean of 3 animals, after imaging period

CC(C)C[C@@H]1NC(=O)[C@H](CC(C)C)NC(=O)[C@H](Cc2ccccc2)NC(=O)[C@@H]2CSSC[C@@H](C(=O)O)NC(=O)[C@H](CSSC[C@H](NC(=O)[C@H](C)NC(=O)CNC(=O)[C@H](CC(=O)O)NC(=O)[C@H](C)NC(=O)[C@H](Cc3ccc(O)cc3)NC(=O)CN(CCN(CCN(CC(=O)O)CC(=O)O)CC(=O)O)CC(=O)O)C(=O)N3CCC[C@H]3C(=O)N2)NC(=O)CNC1=O [In-111-YADGA LLG, metal not drawn] ({DTPA}-YADGACPCFLLGCC-OH; disulfide 6-13, 8-14 (inferred); N-terminus and C-terminus assumed)
tissue to tissue ratio at 24 h [1]: 4.7
tumor targeting (gamma image) ([2]; at 3 hrs after intravenous injection, FIG. 1): clearly tumor targeting

CPCFLLGCC [nonapeptide with two disulfide bridges, ligand to leukocyte β2 integrins]
specific binding to immobilized integrin I-domain (integrin I-domain): no specific binding could be detected

I-125-YADGA LLG peptide: YADGACPCFLLGCC labelled with I-125 by direct iodination (cysteine pairing not given here; also: I-125 label by direct iodination)
tumor targeting (planar gamma image) ([2]; at 24 hrs after intravenous injection, FIGS. 2-3): tumor targeting
clearance [3]: rapid clearance through kidneys
tissue accumulation ([3]; 40 μg): did not accumulate in any tissue

In-111 radiolabeled peptide CPCFLLGCC: In-111 radiolabeled peptide CPCFLLGCC, cDTPA chelation (cysteine pairing not given here; also: In-111 radiolabel, cDTPA chelation)
signal-to-background ratio in late images (E. coli abscess): remained high
accumulation in abscess compared to blood (E. coli abscess; [5]): 2.3 fold
accumulation in abscess compared to muscle (E. coli abscess; [5]): 21.7 fold
abscess targeting in gamma camera imaging (E. coli abscess; E. coli abscess in thigh muscle, i.v., followed 4 hours): specific targeting into tight muscle, which was clearly visible within one hour
clearance (E. coli abscess; i.v.): rapid clearance through kidneys
signal-to-background ratio in late images (S. aureus abscess): remained high
abscess targeting in gamma camera imaging (S. aureus abscess; S. aureus abscess, followed 2 hours): specific targeting
accumulation ratio abscess to blood (S. aureus abscess; after imaging period): 2.0
accumulation ratio abscess to muscle (S. aureus abscess; after imaging period): 4.5

YADGACPCFLLGCC
reduction of accumulation of cells in experimental inflammation ([4]; after 60 minutes): 78%
reduction of accumulation of cells in experimental inflammation ([4]; after 120 minutes): 52%
inhibition of LLG-GFPs binding (THP-1 cell line; 20 μM YLLG): 70%
LLG-GFPs binding blocked (THP-1 cell line; 50 μM YLLG): 95%
IC 50 of blocking LLG-GFP binding (THP-1 cell line; judged from FIG. 12): on nanomolar scale
